Earlier results on one compound are cited in patent US20060165781A1, “Orally disintegrating tablets and process for obtaining them” (priority 2002, published 2006).

The conditions of this series: 5 g in 150 mL of water at 20° C.

Regarding `OC[C@@H](O)[C@@H](O)[C@H](O)[C@H](O)CO` [Spray-dried mannitol, mannitol], the “Time to dissolve in water” value was “approximately 5 s”.
